ChEMBL document CHEMBL1153855, “Discovery of a new family of bis-8-hydroxyquinoline substituted benzylamines with pro-apoptotic activity in cancer cells: synthesis, structure-activity relationship, and action mechanism studies” (2009)
Blank lines part the entries; values can stand above or below the compound they belong to. Active and inactive are the calls of the source. No cut-off for these calls is given here.

Legend:
[1] = Cytotoxicity against human KB-3-1 cells after 72 hrs by MTS assay; assay type: functional; conditions: KB 3-1, 72 h
[2] = Cytotoxicity against human KB3 cells; assay type: functional
[3] = test system: K562; assay: Cytotoxicity against human K562 cells; assay type: functional
[4] = test system: SF-268; assay: Cytotoxicity against human SF268 cells; assay type: functional
[5] = test system: MCF7; assay: Cytotoxicity against human MCF7 cells; assay type: functional
[6] = test system: A549; assay: Cytotoxicity against human A549 cells; assay type: functional
[7] = Inhibition of trypsin-like activity in proteasome; assay type: subcellular
[8] = test system: MCF7; assay: Cytotoxicity against multidrug-resistant human MCF7 cells expressing P-gp; assay type: functional
[9] = test system: HL-60; assay: Induction of apoptosis in human HL60 cells assessed as activation of caspase 3/7 at 1 uM; assay type: functional, cell-based
[10] = test system: SK-OV-3; assay: Cytotoxicity against human SKOV3 cells; assay type: functional
[11] = test system: HL-60; assay: Antiproliferative activity against human HL60 cells at 10 uM after 24 hrs by trypan blue exclusion assay in absence of CuCl2; assay type: functional, cell-based
[12] = test system: HCT-116; assay: Cytotoxicity against human HCT116 cells; assay type: functional
[13] = Inhibition of chymotrypsin-like activity in proteasome; assay type: subcellular
[14] = test system: HepG2; assay: Cytotoxicity against human HepG2 cells; assay type: functional
[15] = test system: HL-60; assay: Induction of apoptosis in human HL60 cells assessed as activation of caspase 8 at 1 uM; assay type: functional, cell-based
[16] = test system: PC-3; assay: Cytotoxicity against human PC3 cells; assay type: functional
[17] = test system: HL-60; assay: Cytotoxicity against human HL60 cells; assay type: functional
[18] = test system: HL-60; assay: Induction of apoptosis in human HL60 cells assessed as activation of caspase 3/7 at 0.01 uM; assay type: functional, cell-based
[19] = test system: HL-60; assay: Induction of apoptosis in human HL60 cells assessed as activation of caspase 3/7; assay type: functional, cell-based
[20] = test system: HL-60; assay: Antiproliferative activity against human HL60 cells at 10 uM after 24 hrs by trypan blue exclusion assay in presence of CuCl2; assay type: functional, cell-based
[21] = test system: HL-60; assay: Induction of apoptosis in human HL60 cells assessed as activation of caspase 9 at 1 uM; assay type: functional, cell-based
[22] = test system: HL-60; assay: Induction of apoptosis in human HL60 cells assessed as PARP cleavage at 10 uM after 24 hrs by Western blot; assay type: functional, cell-based
[23] = test system: HCT-15; assay: Cytotoxicity against human HCT15 cells expressing P-gp; assay type: functional
[24] = test system: HL-60; assay: Induction of apoptosis in human HL60 cells assessed as activation of caspase 3/7 at 0.1 uM; assay type: functional, cell-based
[25] = species on record: Ovis aries; assay: Inhibition of lamb brain tubulin assembly at 37 deg C
[26] = species on record: Ovis aries; assay: Inhibition of lamb brain microtubule disassembly at 4 deg C

Compound: Cc1ccc([C@H](C)N(Cc2ccc(O)c3ncccc23)Cc2ccc(O)c3ncccc23)cc1
CC50 [1]: 41 nM

Compound: Oc1ccc(CNCc2ccccc2)c2cccnc12
CC50 [1]: > 1000 nM

Activity [7]: inactive | Activity [13]: inactive
Compound: Cc1ccc(CN(Cc2ccc(O)c3ncccc23)Cc2ccc(O)c3ncccc23)cc1
CC50 [2]: 8.5 nM | CC50 [3]: 40.8 nM | CC50 [4]: 178 nM | CC50 [5]: 5.4 nM | CC50 [6]: 4.3 nM | CC50 [8]: 37.3 nM | Activity [9]: Active | CC50 [10]: 8 nM | Activity [11]: inactive | CC50 [12]: 3.2 nM | CC50 [14]: 52.1 nM | Activity [15]: inactive | CC50 [16]: 343 nM | CC50 [17]: 32.7 nM | Activity [18]: inactive | CC50 [1]: 2.6 nM | Activity [19]: Dose-dependent effect | Activity [20]: Active | Activity [21]: inactive | Activity [22]: inactive | CC50 [23]: 6 nM | Activity [24]: Active

Activity [7]: inactive | Activity [25]: inactive | Activity [13]: inactive | Activity [26]: Active
Compound: Oc1ccc(CN(Cc2ccc(C(F)(F)F)cc2)Cc2ccc(O)c3ncccc23)c2cccnc12
CC50 [2]: 1.5 nM | CC50 [3]: 5.2 nM | CC50 [4]: 91 nM | CC50 [5]: 1.2 nM | CC50 [6]: 0.9 nM | CC50 [8]: 4.7 nM | Activity [9]: Active | CC50 [10]: 3 nM | Activity [11]: inactive | CC50 [12]: 1 nM | CC50 [14]: 22.8 nM | Activity [15]: inactive | CC50 [16]: 206 nM | CC50 [17]: 10.9 nM | Activity [18]: inactive | CC50 [1]: 1.3 nM | Activity [19]: Dose-dependent effect | Activity [20]: Active | Activity [21]: inactive | Activity [22]: inactive | CC50 [23]: 0.8 nM | Activity [24]: Active

Compound: CC(=O)O[C@H]1C(=O)[C@@]2(C)[C@H]([C@H](OC(=O)c3ccccc3)[C@]3(O)C[C@H](OC(=O)[C@H](O)[C@@H](NC(=O)c4ccccc4)c4ccccc4)C(C)=C1C3(C)C)[C@]1(OC(C)=O)CO[C@@H]1C[C@@H]2O [PACLITAXEL]
CC50 [2]: 0.1 nM

Compound: Oc1ccc(CN(Cc2ccccc2C(F)(F)F)Cc2ccc(O)c3ncccc23)c2cccnc12
CC50 [1]: 123 nM

Compound: Oc1ccc(CNCc2ccccc2C(F)(F)F)c2cccnc12
CC50 [1]: 200 nM

Compound: Oc1ccc(CN(Cc2ccccc2)Cc2ccc(O)c3ncccc23)c2cccnc12
CC50 [1]: 15 nM

Compound: Cc1ccc([C@H](C)NCc2ccc(O)c3ncccc23)cc1
CC50 [1]: > 1000 nM

Compound: Cc1ccc([C@H](C)N(Cc2ccc(O)c3ncccc23)C(=O)OC(C)(C)C)cc1
CC50 [1]: > 1000 nM

Compound: Oc1c(I)cc(Cl)c2cccnc12
Activity [11]: inactive

Compound: Oc1ccc(CN(Cc2cccc3ccccc23)Cc2ccc(O)c3ncccc23)c2cccnc12
CC50 [1]: 5 nM

Compound: CC(C)(C)OC(=O)N(Cc1ccccc1C(F)(F)F)Cc1ccc(O)c2ncccc12
CC50 [1]: 1000 nM

Compound: CC(C)(C)OC(=O)N(Cc1ccc(C(F)(F)F)cc1)Cc1ccc(O)c2ncccc12
CC50 [1]: 10000 nM

Compound: O=[N+]([O-])c1ccc(CN(Cc2ccc(O)c3ncccc23)Cc2ccc(O)c3ncccc23)cc1
CC50 [1]: 42 nM

Compound: Oc1ccc(CNCc2cccc3ccccc23)c2cccnc12
CC50 [1]: > 1000 nM

Compound: CC(=O)O[C@@]12CO[C@@H]1C[C@H](O)[C@@]1(C)C(=O)[C@H](O)C3=C(C)[C@@H](OC(=O)[C@H](O)[C@@H](NC(=O)OC(C)(C)C)c4ccccc4)C[C@@](O)([C@@H](OC(=O)c4ccccc4)[C@H]21)C3(C)C [DOCETAXEL]
CC50 [1]: 0.25 nM

Compound: Oc1ccc(CNCc2ccc(C(F)(F)F)cc2)c2cccnc12
CC50 [1]: 10000 nM

Compound: Cc1ccc(CNCc2ccc(O)c3ncccc23)cc1
CC50 [1]: > 10000 nM
